Measured values taken from patent US20240408169A1 (priority 2023, published 2024).
*1 amine or outer side, *2 acyl side, *3 side chain or, on linkers, in order; H or OH if unused. Where a SMILES comes first, the peptide text is derived from it. Bridges are numbered along the chain shown (N, C = ends). [ ]: non-standard residue; d: D form. The star is where a group is joined. X146 = CC(C)C(=O)N1[C@@H]2CC[C@H]1C=C(c1ccc(Cl)cc1C[C@@H](C(=O)[*:2])N(C)[*:1])C2; NMePhe(2-(4-MorPh),5-Cl) = CN[C@@H](Cc1cc(Cl)ccc1-c1ccc(N2CCOCC2)cc1)C(=O)O; X138 = CN([C@@H](Cc1cc(Cl)ccc1-c1ccc(S(=O)(=O)N2CCCC2)cc1)C(=O)[*:2])[*:1]; X191 = CN([C@@H](Cc1cc(Cl)ccc1-c1ccc(N2CCOCC2)c(F)c1F)C(=O)[*:2])[*:1]; X145 = CN1CCN(c2ccc(-c3ccc(F)cc3C[C@@H](C(=O)[*:2])N(C)[*:1])cc2F)CC1; NMeAla(5-Cl-2-cPrO-3-pyridyl) = CN[C@@H](Cc1cc(Cl)cnc1OC1CC1)C(=O)O; X149 = CN([C@@H](Cc1cc(Cl)ccc1-c1ccnc(N2CCOCC2)c1F)C(=O)[*:2])[*:1]; X136 = CN1CCOc2cc(-c3ccc(Cl)cc3C[C@@H](C(=O)[*:2])N(C)[*:1])ccc21; X87 = CN([C@@H](Cc1cc(F)ccc1-c1ccc(N2CCOCC2)cc1)C(=O)[*:2])[*:1]; X151 = CN([C@@H](Cc1cc(Cl)ccc1-c1cnn(C2CCC2)c1)C(=O)[*:2])[*:1]; X26 = CN([C@@H](Cc1cc(F)ccc1-c1cnn(C2CC2)c1)C(=O)[*:2])[*:1]; NMehhhLys(Me) = CN([C@@H](CCCCCCCN(C)[*:3])C(=O)[*:2])[*:1]; X118 = Cc1cc(-c2ccc(Cl)cc2C[C@@H](C(=O)[*:2])N(C)[*:1])cnn1; X194 = CN([C@@H](Cc1cc(Cl)ccc1-c1ccnnc1)C(=O)[*:2])[*:1]; X204 = CN([C@@H](Cc1cc(F)ccc1-c1ccnnc1)C(=O)[*:2])[*:1]; NMe(hhhLys) = CN([C@@H](CCCCCCCN[*:3])C(=O)[*:2])[*:1]; X132 = CN([C@@H](Cc1cc(Cl)cc2ccoc12)C(=O)[*:2])[*:1]; cBuCO(3,3-F2-1-CF3) = O=C(C1(C(F)(F)F)CC(F)(F)C1)*; X173 = CN([C@@H](Cc1cc(Cl)cs1)C(=O)[*:2])[*:1]; X182 = N#Cc1ccc(CC[C@H](N[*:1])C(=O)[*:2])cn1; Pro(trans-4-F) = O=C(O)[C@@H]1C[C@@H](F)CN1; Gly(cPr) = N[C@H](C(=O)O)C1CC1; X129 = N#CC1(C(=O)*)CCC1

Assays:
[1] = target: T1, CyclinA2/CDK2 (Homo sapiens, UniProt P20248); assay: Fluorescence Polarization (FP) competitive binding assay, Cyclin A2/Cdk2; conditions: 8 nM Cyclin A2/Cdk2, 2 nM FAM probe; average of 2-3 independent experiments; read-out: Cyclin A FP IC50;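 further: plates equilibrated two hours at room temperature before polarization reading, IC50 fitted from eight-concentration compound titration curves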
T1 construct: purchased CRELUX Protein Services

[2] = tested on: NCI-H1048 cells; assay: MTT proliferation assay, NCI-H1048; type: cell-based; conditions: 5 days compound exposure, 1:3 serial dilution starting at 10 μM;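 further: Dose-response in 96-well plates over 8 or 10 concentration points, with exposure spanning 3-4 cell doublings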
[3] = target: T2, CyclinE1/CDK2 (Homo sapiens, UniProt P24864); assay: Fluorescence Polarization (FP) competitive binding assay, Cyclin E1/Cdk2; conditions: 10 nM Cyclin E1/Cdk2, 2 nM FAM probe; average of 2-3 independent experiments; read-out: Cyclin E FP IC50;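 further: readings taken after two-hour equilibration at room temperature in HEPES buffer with NaCl, DTT, NP-40 and BSA, IC50 fitted from eight-concentration serial dilution series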
T2 construct: purchased Eurofins, discovery 14-475

[4] = target: T3, CyclinB1/CDK1 (Homo sapiens, UniProt P14635); assay: Fluorescence Polarization (FP) competitive binding assay, Cyclin B1/Cdk1; conditions: 10 nM Cyclin B1/Cdk1, 2 nM FAM probe; average of 2-3 independent experiments; read-out: Cyclin B FP IC50;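 further: fluorescence polarization read after equilibration at room temperature, with IC50 taken from serially diluted dose-response curves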
T3 construct: purchased Eurofins, discovery 14-450

[5] = tested on: OVCAR3 cells; assay: MTT proliferation assay, OVCAR3; type: cell-based; conditions: 5 days compound exposure, 1:3 serial dilution starting at 10 μM;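 further: compound given as an 8- or 10-point series, one day after plating, with exposure covering roughly 3-4 cell doublings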

| SMILES | IC50 [1] [nM] | GI50 [2] [nM] | IC50 [3] [nM] | IC50 [4] [nM] | GI50 [5] [nM] |
| --- | --- | --- | --- | --- | --- |
| CC(C)C[C@@H]1NC(=O)[C@@H](N(C)C(=O)[C@@H](NC(=O)[C@@H]2C[C@@H](F)CN2C(=O)C2(C(F)(F)F)CC(F)(F)C2)C2CC2)CCCCCCCNC(=O)[C@H](Cc2cc(Cl)ccc2C2=C[C@@H]3CC[C@H](C2)N3C(=O)C(C)C)N(C)C1=O [Example 312] ({cBuCO(3,3-F2-1-CF3)}-[Pro(trans-4-F)][Gly(cPr)][NMe(hhhLys)]L[X146]; lactam 3-C) | 20 | 20 | 740 | 20 | 30 |
| CC(C)C[C@@H]1NC(=O)[C@@H](N(C)C(=O)[C@@H](NC(=O)[C@@H]2C[C@@H](F)CN2C(=O)C2(C(F)(F)F)CC(F)(F)C2)C2CC2)CCCCCCCN(C)C(=O)[C@H](Cc2cc(Cl)ccc2-c2ccnc(N3CCOCC3)c2F)N(C)C1=O [Example 349] ({cBuCO(3,3-F2-1-CF3)}-[Pro(trans-4-F)][Gly(cPr)][NMehhhLys(Me)]L[X149]; lactam 3-C) | 20 | 10 | 230 | 20 | 10 |
| CC(=O)N1C2CCC1CC(c1ccc(F)cc1C[C@H]1C(=O)N(C)CCCCCCC[C@H](N(C)C(=O)[C@@H](NC(=O)[C@@H]3C[C@@H](F)CN3C(=O)C3(C(F)(F)F)CC(F)(F)C3)C3CC3)C(=O)N[C@@H](CC(C)C)C(=O)N1C)C2 (single isomer, unassigned) [Example 59-P1] | 120 | 20 | 850 | 20 | 20 |
| CC(C)C[C@@H]1NC(=O)[C@@H](N(C)C(=O)[C@@H](NC(=O)[C@@H]2C[C@@H](F)CN2C(=O)C2(C#N)CCC2)C2CC2)CCCCCCCN(C)C(=O)[C@H](Cc2cc(F)ccc2-c2cnn(C3CC3)c2)N(C)C1=O [Example 122] (X129-[Pro(trans-4-F)][Gly(cPr)][NMehhhLys(Me)]L[X26]; lactam 3-C) | 20 | 50 | 100 | 20 | 50 |
| CC(C)C[C@@H]1NC(=O)[C@@H](N(C)C(=O)[C@@H](NC(=O)[C@@H]2C[C@@H](F)CN2C(=O)C2(C(F)(F)F)CC(F)(F)C2)C2CC2)CCCCCCCN(C)C(=O)[C@H](Cc2cc(Cl)ccc2-c2ccc(S(=O)(=O)N3CCCC3)cc2)N(C)C1=O [Example 266] ({cBuCO(3,3-F2-1-CF3)}-[Pro(trans-4-F)][Gly(cPr)][NMehhhLys(Me)]L[X138]; lactam 3-C) | 20 | 30 | 2220 | 20 | 50 |
| CC(C)C[C@@H]1NC(=O)[C@@H](N(C)C(=O)[C@@H](NC(=O)[C@@H]2C[C@@H](F)CN2C(=O)C2(C(F)(F)F)CC(F)(F)C2)C2CC2)CCCCCCCN(C)C(=O)[C@H](Cc2cc(Cl)ccc2-c2cnn(C3CCC3)c2)N(C)C1=O [Example 112] ({cBuCO(3,3-F2-1-CF3)}-[Pro(trans-4-F)][Gly(cPr)][NMehhhLys(Me)]L[X151]; lactam 3-C) | 20 | 10 | 340 | 20 | 10 |
| CC(C)C[C@@H]1NC(=O)[C@@H](N(C)C(=O)[C@@H](NC(=O)[C@@H]2C[C@@H](F)CN2C(=O)C2(C(F)(F)F)CC(F)(F)C2)C2CC2)CCCCCCCN(C)C(=O)[C@H](Cc2cc(F)ccc2-c2ccnnc2)N(C)C1=O [Example 279] ({cBuCO(3,3-F2-1-CF3)}-[Pro(trans-4-F)][Gly(cPr)][NMehhhLys(Me)]L[X204]; lactam 3-C) | 100 | 80 | 1920 | 20 | 90 |
| CC(C)C[C@@H]1NC(=O)[C@@H](N(C)C(=O)[C@@H](NC(=O)[C@@H]2C[C@@H](F)CN2C(=O)C2(C(F)(F)F)CCC2)C2CC2)CC=CCCCCN(C)C(=O)[C@H](Cc2cc(Cl)ccc2Oc2ncccn2)N(C)C1=O [Example 157] | 360 | 80 | 410 | 20 | 140 |
| Cc1cc(-c2ccc(Cl)cc2C[C@H]2C(=O)NCCCCCCC[C@H](N(C)C(=O)[C@@H](NC(=O)[C@@H]3C[C@@H](F)CN3C(=O)C3(C(F)(F)F)CC(F)(F)C3)C3CC3)C(=O)N[C@@H](CC(C)C)C(=O)N2C)cnn1 [Example 295] ({cBuCO(3,3-F2-1-CF3)}-[Pro(trans-4-F)][Gly(cPr)][NMe(hhhLys)]L[X118]; lactam 3-C) | 70 | 80 | 3690 | 20 | 160 |
| CC(C)C[C@@H]1NC(=O)[C@@H](N(C)C(=O)[C@@H](NC(=O)[C@@H]2C[C@@H](F)CN2C(=O)C2(C(F)(F)F)CC(F)(F)C2)C2CC2)CCCCCCCNC(=O)[C@H](Cc2cc(Cl)ccc2-c2ccnnc2)N(C)C1=O [Example 291] ({cBuCO(3,3-F2-1-CF3)}-[Pro(trans-4-F)][Gly(cPr)][NMe(hhhLys)]L[X194]; lactam 3-C) | 70 | 120 | 5160 | 20 | 150 |
| CC(C)C[C@@H]1NC(=O)[C@@H](N(C)C(=O)[C@@H](NC(=O)[C@@H]2C[C@@H](F)CN2C(=O)C2(C(F)(F)F)CC(F)(F)C2)C2CC2)CCCCCCCN(C)C(=O)[C@H](Cc2cc(Cl)ccc2-c2ccc3c(c2)OCCN3C)N(C)C1=O [Example 342] ({cBuCO(3,3-F2-1-CF3)}-[Pro(trans-4-F)][Gly(cPr)][NMehhhLys(Me)]L[X136]; lactam 3-C) | 20 | 10 | 590 | 20 | 10 |
| CC(C)C[C@@H]1NC(=O)[C@@H](N(C)C(=O)[C@@H](NC(=O)[C@@H]2C[C@@H](F)CN2C(=O)C2(C(F)(F)F)CC(F)(F)C2)C2CC2)CCCCCCCN(C)C(=O)[C@H](Cc2cc(F)ccc2-c2ccc(N3CCN(C)CC3)c(F)c2)N(C)C1=O [Example 401] ({cBuCO(3,3-F2-1-CF3)}-[Pro(trans-4-F)][Gly(cPr)][NMehhhLys(Me)]L[X145]; lactam 3-C) | 20 | 10 | 380 | 20 | 10 |
| CC(C)C[C@@H]1NC(=O)[C@@H](N(C)C(=O)[C@@H](NC(=O)[C@@H]2C[C@@H](F)CN2C(=O)C2(C(F)(F)F)CC(F)(F)C2)C2CC2)CCCCCCCNC(=O)[C@H](Cc2cc(Cl)cnc2OC2CC2)N(C)C1=O [Example 103] ({cBuCO(3,3-F2-1-CF3)}-[Pro(trans-4-F)][Gly(cPr)][NMe(hhhLys)]L[NMeAla(5-Cl-2-cPrO-3-pyridyl)]; lactam 3-C) | 60 | 30 | 350 | 20 | 50 |
| CC(C)C[C@@H]1NC(=O)[C@@H](N(C)C(=O)[C@@H](NC(=O)[C@@H]2C[C@@H](F)CN2C(=O)C2(C(F)(F)F)CC(F)(F)C2)C2CC2)CCCCCCCN(C)C(=O)[C@H](Cc2cc(Cl)cc3ccoc23)N(C)C1=O [Example 394] ({cBuCO(3,3-F2-1-CF3)}-[Pro(trans-4-F)][Gly(cPr)][NMehhhLys(Me)]L[X132]; lactam 3-C) | 150 | 90 | 500 | 20 | 50 |
| CC(C)C[C@@H]1NC(=O)[C@@H](N(C)C(=O)[C@@H](NC(=O)[C@@H]2C[C@@H](F)CN2C(=O)C2(C(F)(F)F)CCC2)C2CC2)CC=CCCCCN(C)C(=O)[C@H](Cc2cc(F)cnc2OC2CC2)N(C)C1=O [Example 133] | 470 | 340 | 340 | 20 | 260 |
| CC(C)C[C@@H]1NC(=O)[C@@H](N(C)C(=O)[C@H](CCc2ccc(C#N)nc2)NC(=O)[C@@H]2C[C@@H](F)CN2C(=O)C2(C(F)(F)F)CC(F)(F)C2)CCCCCCCN(C)C(=O)[C@H](Cc2cc(Cl)ccc2-c2ccc(N3CCOCC3)cc2)N(C)C1=O [Example 416] ({cBuCO(3,3-F2-1-CF3)}-[Pro(trans-4-F)][X182][NMehhhLys(Me)]L[NMePhe(2-(4-MorPh),5-Cl)]; lactam 3-C) | 40 | 30 | 3980 | 20 | 40 |
| CC(C)C[C@@H]1NC(=O)[C@@H](N(C)C(=O)[C@@H](NC(=O)[C@@H]2C[C@@H](F)CN2C(=O)C2(C(F)(F)F)CC(F)(F)C2)C2CC2)CCCCCCCNC(=O)[C@H](Cc2cc(F)ccc2-c2ccc(N3CCOCC3)cc2)N(C)C1=O [Example 334] ({cBuCO(3,3-F2-1-CF3)}-[Pro(trans-4-F)][Gly(cPr)][NMe(hhhLys)]L[X87]; lactam 3-C) | 20 | 10 | 190 | 20 | 10 |
| CC(C)C[C@@H]1NC(=O)[C@@H](N(C)C(=O)[C@@H](NC(=O)[C@@H]2C[C@@H](F)CN2C(=O)C2(C(F)(F)F)CC(F)(F)C2)C2CC2)CCCCCCCN(C)C(=O)[C@H](Cc2cc(Cl)ccc2-c2ccc(N3CCOCC3)c(F)c2F)N(C)C1=O [Example 386] ({cBuCO(3,3-F2-1-CF3)}-[Pro(trans-4-F)][Gly(cPr)][NMehhhLys(Me)]L[X191]; lactam 3-C) | 20 | 30 | 900 | 20 | 20 |
| CC(C)C[C@@H]1NC(=O)[C@@H](N(C)C(=O)[C@@H](NC(=O)[C@@H]2C[C@@H](F)CN2C(=O)C2(C(F)(F)F)CC(F)(F)C2)C2CC2)CCCCCCCN(C)C(=O)[C@H](Cc2cc(Cl)cs2)N(C)C1=O [Example 426] ({cBuCO(3,3-F2-1-CF3)}-[Pro(trans-4-F)][Gly(cPr)][NMehhhLys(Me)]L[X173]; lactam 3-C) | 110 | 90 | 2060 | 20 | 150 |
